Source: PubChem BioAssay (NCI)
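In this assay, cells in 96-well plates receive the compound at five concentrations for 48 hours. Endpoints are linearly interpolated between the surrounding concentrations. GI50 marks 50% less growth. TGI: total growth inhibition.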

Columns and labels:
Experiment in all cases: NCI tumour cell line growth inhibition, 48 h
UO-31 renal = test system: UO-31 renal
SNB-19 CNS = test system: SNB-19 CNS
HCT-15 colon = test system: HCT-15 colon
ACHN renal = test system: ACHN renal
T-47D breast = test system: T-47D breast
U251 CNS = test system: U251 CNS
SW-620 colon = test system: SW-620 colon
M14 melanoma = test system: M14 melanoma
SF-268 CNS = test system: SF-268 CNS
COLO 205 colon = test system: COLO 205 colon
RXF 393 renal = test system: RXF 393 renal
LOX IMVI melanoma = test system: LOX IMVI melanoma
HCT-116 colon = test system: HCT-116 colon
KM12 colon = test system: KM12 colon
HT29 colon = test system: HT29 colon
MOLT-4 leukemia = test system: MOLT-4 leukemia
DU-145 prostate = test system: DU-145 prostate
PC-3 prostate = test system: PC-3 prostate
NCI/ADR-RES ovarian = test system: NCI/ADR-RES ovarian
BT-549 breast = test system: BT-549 breast
IGROV1 ovarian = test system: IGROV1 ovarian
NCI-H522 lung = test system: NCI-H522 lung
OVCAR-3 ovarian = test system: OVCAR-3 ovarian
OVCAR-4 ovarian = test system: OVCAR-4 ovarian
MALME-3M melanoma = test system: MALME-3M melanoma
HOP-62 NSCLC = test system: HOP-62 NSCLC
MDA-MB-231 breast = test system: MDA-MB-231 breast
NCI-H460 lung = test system: NCI-H460 lung
TK-10 renal = test system: TK-10 renal

CCN1C(C)(C)CC(Oc2ccc(C(=O)Nc3ccc(NC(=O)Nc4cc(C(C)(C)C)on4)cc3)nc2)CC1(C)C
GI50 (UO-31 renal): 1.67 µM
TGI (UO-31 renal): 4.25 µM
GI50 (SNB-19 CNS): 2.64 µM
TGI (SNB-19 CNS): 11.2 µM
GI50 (HCT-15 colon): 1.71 µM
TGI (HCT-15 colon): 3.72 µM
GI50 (ACHN renal): 2.05 µM
TGI (ACHN renal): 4.37 µM
GI50 (T-47D breast): 2.34 µM
TGI (T-47D breast): 7.2 µM
GI50 (U251 CNS): 1.68 µM
TGI (U251 CNS): 3.58 µM
GI50 (SW-620 colon): 2.1 µM
TGI (SW-620 colon): 4.37 µM
GI50 (M14 melanoma): 1.91 µM
TGI (M14 melanoma): 3.63 µM
GI50 (SF-268 CNS): 2.39 µM
TGI (SF-268 CNS): 7.71 µM
GI50 (COLO 205 colon): 1.83 µM
TGI (COLO 205 colon): 3.82 µM
GI50 (RXF 393 renal): 1.64 µM
TGI (RXF 393 renal): 3.36 µM
GI50 (LOX IMVI melanoma): 1.78 µM
TGI (LOX IMVI melanoma): 3.31 µM
GI50 (HCT-116 colon): 1.99 µM
TGI (HCT-116 colon): 3.68 µM
GI50 (KM12 colon): 2.91 µM
TGI (KM12 colon): 9.35 µM
GI50 (HT29 colon): 1.58 µM
TGI (HT29 colon): 3.86 µM
GI50 (MOLT-4 leukemia): 1.93 µM
TGI (MOLT-4 leukemia): 5.24 µM
GI50 (DU-145 prostate): 1.87 µM
TGI (DU-145 prostate): 3.72 µM
GI50 (PC-3 prostate): 2.88 µM
TGI (PC-3 prostate): 8.82 µM
GI50 (NCI/ADR-RES ovarian): 2.48 µM
TGI (NCI/ADR-RES ovarian): > 22.6 µM
GI50 (BT-549 breast): 4.53 µM
TGI (BT-549 breast): 10.3 µM
GI50 (IGROV1 ovarian): 6.86 µM
TGI (IGROV1 ovarian): 47.5 µM
GI50 (NCI-H522 lung): 1.82 µM
TGI (NCI-H522 lung): 4.23 µM
GI50 (OVCAR-3 ovarian): 1.78 µM
TGI (OVCAR-3 ovarian): 3.86 µM
GI50 (OVCAR-4 ovarian): 5.23 µM
TGI (OVCAR-4 ovarian): 25.9 µM
GI50 (MALME-3M melanoma): 1.61 µM
TGI (MALME-3M melanoma): 3.37 µM
GI50 (HOP-62 NSCLC): 1.67 µM
TGI (HOP-62 NSCLC): 3.87 µM
GI50 (MDA-MB-231 breast): 2.02 µM
TGI (MDA-MB-231 breast): 4.82 µM
GI50 (NCI-H460 lung): 1.89 µM
TGI (NCI-H460 lung): 3.69 µM
GI50 (TK-10 renal): 5.49 µM
TGI (TK-10 renal): 14 µM
